Assay [1] concerns the target sigma 1 receptor (Homo sapiens, UniProt Q99720). Description: Sigma 1 receptor radioligand competition binding.
The target in assay [2] is sigma 2 receptor (Homo sapiens, UniProt Q5BJF2). Description: Sigma 2 receptor radioligand competition binding. The settings on record: for Ki ratio Sig1R/Sig2R: ratio of Sig1R Ki to Sig2R Ki. On the technique in general: In a radioligand displacement assay an active substance lowers the binding of a labelled ligand.
In assay [3] the target is H1 (Homo sapiens, UniProt P35367). Description: Radioligand competition binding, H1. The settings on record: Table 5; Cheng-Prusoff from best fit IC50.
The mark [4] stands for this setting: Table 1, 7-piperazinyl-tetrahydronaphthalene analogs, read-out: Ki (nM) Sig1R.
Setting [5] is: Table 1, 7-piperazinyl-tetrahydronaphthalene analogs, read-out: Ki (nM) Sig2R.
The mark [6] stands for this setting: Table 2, piperazinyl-tetrahydronaphthalene analogs, read-out: Ki (nM) Sig1R.
Setting [7] is: Table 2, piperazinyl-tetrahydronaphthalene analogs, read-out: Ki (nM) Sig2R.

Where two headings read alike, the source gives them in different places.

sigma 1 receptor, sequence (Q99720 whole entry, species assumed): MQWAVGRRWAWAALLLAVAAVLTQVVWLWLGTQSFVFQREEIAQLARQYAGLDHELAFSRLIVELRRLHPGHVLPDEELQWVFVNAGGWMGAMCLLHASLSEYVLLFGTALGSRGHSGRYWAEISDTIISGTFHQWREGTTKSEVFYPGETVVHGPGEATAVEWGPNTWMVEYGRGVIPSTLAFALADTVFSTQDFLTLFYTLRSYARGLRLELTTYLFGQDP
sigma 2 receptor, sequence (Q5BJF2 whole entry, species assumed): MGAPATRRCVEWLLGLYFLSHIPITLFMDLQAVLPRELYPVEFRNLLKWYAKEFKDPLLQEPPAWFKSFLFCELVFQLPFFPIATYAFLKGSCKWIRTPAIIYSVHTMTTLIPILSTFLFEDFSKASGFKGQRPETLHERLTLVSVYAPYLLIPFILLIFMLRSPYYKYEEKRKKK
H1, sequence (P35367 whole entry): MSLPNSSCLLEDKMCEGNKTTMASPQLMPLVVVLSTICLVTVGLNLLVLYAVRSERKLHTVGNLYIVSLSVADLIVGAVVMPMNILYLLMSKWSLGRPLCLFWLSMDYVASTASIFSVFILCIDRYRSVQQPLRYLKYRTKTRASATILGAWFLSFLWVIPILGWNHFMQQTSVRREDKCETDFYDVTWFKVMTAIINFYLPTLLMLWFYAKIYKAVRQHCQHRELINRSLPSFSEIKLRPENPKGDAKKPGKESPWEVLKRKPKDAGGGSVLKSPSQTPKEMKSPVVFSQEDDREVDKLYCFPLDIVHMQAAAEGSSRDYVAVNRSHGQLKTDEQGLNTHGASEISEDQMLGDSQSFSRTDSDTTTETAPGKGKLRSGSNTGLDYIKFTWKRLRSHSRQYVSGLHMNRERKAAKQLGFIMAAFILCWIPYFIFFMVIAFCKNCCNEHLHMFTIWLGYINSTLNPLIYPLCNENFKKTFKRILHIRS

For orientation: Ki means the equilibrium dissociation constant of an inhibitor or competing ligand from its target. For the molecule `CC(C)N1CCN(c2ccc3c(c2)C(N(C)C(=O)OCc2ccccc2)CCC3)CC1` (centres unmarked) [MDW-1-167, Benzyl (7-(4-isopropylpiperazin-1-yl)-1,2,3,4-tetrahydronaphthalen-1-yl)(methyl)carbamate], the Ki was determined as 223 nM in assay [1] (setting [4]) and 8 nM in assay [2] (setting [5]). In addition, the “Ki ratio Sig1R/Sig2R” value in assay [2] (Table 1) stood at 27.
For `COC(=O)CCN1CCN(c2ccc3c(c2)C(N(C)C(=O)OCc2ccccc2)CCC3)CC1` (centres unmarked) [MDW-1-166, Methyl 3-(4-(8-(((benzyloxy)carbonyl)(methyl)amino)-5,6,7,8-tetrahydronaphthalen-2-yl)piperazin-1-yl)propanoate], the results for the inhibitory constant (Ki) in assay [1] (setting [4]) and in assay [2] (setting [5]) were 2860 nM and 43 nM, respectively. The “Ki ratio Sig1R/Sig2R” value in assay [2] (Table 1) came to 67.
As to `CCCN1CCN(c2cccc3c2CCCC3N(C)C(=O)OCc2ccccc2)CC1` (centres unmarked) [MDW-1-215, Benzyl methyl(5-(4-propylpiperazin-1-yl)-1,2,3,4-tetrahydronaphthalen-1-yl)carbamate], the inhibition constant (Ki) in assay [1] (setting [6]) is 12 nM; in assay [2] (setting [7]) it was 26 nM. Further, in assay [2] (Table 2), the “Ki ratio Sig1R/Sig2R” value worked out at 0.5.
Take `CCOC(=O)CCN1CCN(c2ccc3c(c2)CCCC3N(C)C(=O)OCc2ccccc2)CC1` (centres unmarked) [MDW-1-207, Ethyl 3-(4-(5-(((benzyloxy)carbonyl)(methyl)amino)-5,6,7,8-tetrahydronaphthalen-2-yl)piperazin-1-yl)propanoate]: the values for the inhibition constant (Ki) in assay [1] (setting [6]) and in assay [2] (setting [7]) were 647 nM and 91 nM, respectively. Also, in assay [2] (Table 2), the “Ki ratio Sig1R/Sig2R” value turned out to be 7.
As for `CCCN1CCN(c2ccc3c(c2)C(N(CC)C(=O)OCc2ccccc2)CCC3)CC1` (centres unmarked) [MDW-1-195, Benzyl ethyl(7-(4-propylpiperazin-1-yl)-1,2,3,4-tetrahydronaphthalen-1-yl)carbamate], the figures for the Ki in assay [1] (setting [4]) and in assay [2] (setting [5]) were 321 nM and 5 nM, respectively. For the same molecule, the “Ki ratio Sig1R/Sig2R” value in assay [2] (Table 1) stood at 70.
In the case of `CCCN1CCN(c2ccc3c(c2)CCCC3N(C)C(=O)OCc2ccccc2)CC1` (centres unmarked) [MDW-1-204, Benzyl methyl(6-(4-propylpiperazin-1-yl)-1,2,3,4-tetrahydronaphthalen-1-yl)carbamate], the results for the inhibition constant Ki in assay [1] (setting [6]) and in assay [2] (setting [7]) were 40 nM and 13 nM, respectively. In assay [2] (Table 2), the “Ki ratio Sig1R/Sig2R” value stood at 3.
With `CCCN1CCN(c2ccc3c(c2)C(OC(=O)CCc2ccccc2)CCC3)CC1` (centres unmarked) [MDW-1-290, 7-(4-Propylpiperazin-1-yl)-1,2,3,4-tetrahydronaphthalen-1-yl 3-phenylpropanoate], the Ki in assay [1] (setting [4]) turned out to be 33 nM; in assay [2] (setting [5]), 25 nM. Further, the “Ki ratio Sig1R/Sig2R” value in assay [2] (Table 1) stood at 1.
For `CN(C(=O)OCc1ccccc1)C1CCCc2ccc(N3CCN(C4CCCCC4)CC3)cc21` (centres unmarked) [MDW-1-205, Benzyl (7-(4-cyclohexylpiperazin-1-yl)-1,2,3,4-tetrahydronaphthalen-1-yl)(methyl)carbamate], the inhibition constant (Ki) was 16 nM in assay [1] (setting [4]) and 2 nM in assay [2] (setting [5]). Also, in assay [2] (Table 1), the “Ki ratio Sig1R/Sig2R” value turned out to be 8.
Taken in the same sequence, the figures for `CCN1CCN(c2ccc3c(c2)C(N(C)C(=O)OCc2ccccc2)CCC3)CC1` (centres unmarked) [MDW-1-161, Benzyl (7-(4-ethylpiperazin-1-yl)-1,2,3,4-tetrahydronaphthalen-1-yl)(methyl)carbamate] were 887 nM, 35 nM and 25.
On to `CN(Cc1ccccc1)C1CCCc2cc(N3CCOCC3)ccc21` (centres unmarked) [MDW-1-129, N-Benzyl-N-methyl-6-morpholino-1,2,3,4-tetrahydronaphthalen-1-amine], for which the inhibition constant Ki in assay [1] (Table 5, Cheng-Prusoff from best fit IC50, read-out: Ki Sigma 1) was 223 nM; in assay [2] (Table 5, Cheng-Prusoff from best fit IC50, read-out: Ki Sigma 2) it was 1170 nM; in assay [3], 118 nM.
In the case of `CCOC(=O)CCN1CCN(c2ccc3c(c2)C(N(CC)C(=O)OCc2ccccc2)CCC3)CC1` (centres unmarked) [MDW-1-190, Ethyl 3-(4-(8-(((benzyloxy)carbonyl)(ethyl)amino)-5,6,7,8-tetrahydronaphthalen-2-yl)piperazin-1-yl)propanoate], the Ki in assay [1] (setting [4]) came to 3320 nM; in assay [2] (setting [5]), 20 nM. Further, the “Ki ratio Sig1R/Sig2R” value in assay [2] (Table 1) is listed as 166.
For the molecule `CCOC(=O)CCN1CCN(c2cccc3c2CCCC3N(C)C(=O)OCc2ccccc2)CC1` (centres unmarked) [MDW-1-214, Ethyl 3-(4-(5-(((benzyloxy)carbonyl)(methyl)amino)-5,6,7,8-tetrahydronaphthalen-1-yl)piperazin-1-yl)propanoate], the Ki in assay [1] (setting [6]) turned out to be 303 nM; in assay [2] (setting [7]), 34 nM. In addition, the “Ki ratio Sig1R/Sig2R” value in assay [2] (Table 2) was found to be 9.
As to `CCOC(=O)CN1CCN(c2ccc3c(c2)C(N(C)C(=O)OCc2ccccc2)CCC3)CC1` (centres unmarked) [MDW-1-169, Ethyl 2-(4-(8-(((benzyloxy)carbonyl)(methyl)amino)-5,6,7,8-tetrahydronaphthalen-2-yl)piperazin-1-yl)acetate], the Ki in assay [1] (setting [4]) was more than 10000 nM; in assay [2] (setting [5]), 894 nM.
On to `CN(C(=O)OCc1ccccc1)C1CCCc2ccc(N3CCN(C4CCC4)CC3)cc21` (centres unmarked) [MDW-1-162, Benzyl (7-(4-cyclobutylpiperazin-1-yl)-1,2,3,4-tetrahydronaphthalen-1-yl)(methyl)carbamate], for which the inhibitory constant (Ki) in assay [1] (setting [4]) worked out at 266 nM; in assay [2] (setting [5]), 12 nM. In assay [2] (Table 1), the “Ki ratio Sig1R/Sig2R” value came to 22.
For the molecule `CCOC(=O)CCN1CCN(c2ccc3c(c2)C(NC(=O)OCc2ccccc2)CCC3)CC1` (centres unmarked) [MDW-1-206, Ethyl 3-(4-(8-(((benzyloxy)carbonyl)amino)-5,6,7,8-tetrahydronaphthalen-2-yl)piperazin-1-yl)propanoate], the values for the Ki in assay [1] (setting [4]) and in assay [2] (setting [5]) were 2260 nM and 80 nM, respectively. Further, the “Ki ratio Sig1R/Sig2R” value in assay [2] (Table 1) was determined as 28.
Consider `CCCN1CCN(c2ccc3c(c2)C(NC(=O)OCc2ccccc2)CCC3)CC1` (centres unmarked) [MDW-1-202, Benzyl (7-(4-propylpiperazin-1-yl)-1,2,3,4-tetrahydronaphthalen-1-yl)carbamate], for which the Ki in assay [1] (setting [4]) was found to be 174 nM; in assay [2] (setting [5]), 56 nM. Besides, the “Ki ratio Sig1R/Sig2R” value in assay [2] (Table 1) is listed as 3.
Turning to `CN1CCN(c2ccc3c(c2)C(N(C)C(=O)OCc2ccccc2)CCC3)CC1` (centres unmarked) [MDW-1-93, Benzyl methyl(7-(4-methylpiperazin-1-yl)-1,2,3,4-tetrahydronaphthalen-1-yl)carbamate], the inhibitory constant (Ki) in assay [1] (setting [4]) amounted to 2940 nM; in assay [2] (setting [5]), 284 nM. In addition, the “Ki ratio Sig1R/Sig2R” value in assay [2] (Table 1) is 10.
